Measurements from ChEMBL document CHEMBL1142118, “Halogenated monoterpene aldehydes from the South African marine alga Plocamium corallorhiza” (J Nat Prod, 2007).

Assay: Cytotoxicity against WHCO1 cells after 48 hrs by MTT assay
Assay type: cell-based
Details: Homo sapiens, WHCO1, 48 h

CC(/C=C/C(Cl)C(C)(Cl)CBr)=C\C=O (configuration not stated)
IC50: 64.8 µM

C=C(C)C(Br)CC(Br)/C(C)=C/C=O (configuration not stated)
IC50: 7.5 µM
